Data taken from patent US20250145687A1, “MODIFIED LIGAND-GATED ION CHANNELS AND METHODS OF USE” (Howard Hughes Medical Institute, priority 2022, published 2025).
Like-named read-outs stand apart in the source and are kept apart here.

Columns and labels:
Assay type in all cases: cell-based
[1] = target: T1, α7^L131G,Q139L,Y217F-5HT3 S172I (Homo sapiens, UniProt P36544, L131G/M226I/Q139L/S172I/T225I/Y217F); assay: EC50 dose response, PSAM4-5HT3 with additional mutations; settings: additional mutation S172I; read-out: EC50s (SEM) for additional mutations of α7^L131G, Q139L, Y217F -5HT3
T1 construct: expressed in transfected cells; host or cells: HEK 293
T1 sequence (P36544 with tags, fused parts or gaps L131G/Q139L/S172I/Y217F/T225I/M226I limits assumed): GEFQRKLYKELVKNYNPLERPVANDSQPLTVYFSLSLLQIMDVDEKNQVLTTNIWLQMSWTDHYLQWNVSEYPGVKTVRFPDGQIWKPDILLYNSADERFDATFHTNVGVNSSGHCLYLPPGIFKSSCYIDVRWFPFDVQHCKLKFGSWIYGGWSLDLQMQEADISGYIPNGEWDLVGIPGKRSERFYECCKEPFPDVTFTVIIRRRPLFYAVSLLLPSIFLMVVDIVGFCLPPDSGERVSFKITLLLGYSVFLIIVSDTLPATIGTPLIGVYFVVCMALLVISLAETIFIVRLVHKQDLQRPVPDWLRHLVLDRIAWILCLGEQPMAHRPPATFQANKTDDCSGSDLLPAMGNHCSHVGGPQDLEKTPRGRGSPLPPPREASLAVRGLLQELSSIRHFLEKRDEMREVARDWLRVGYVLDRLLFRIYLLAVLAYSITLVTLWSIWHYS

[2] = target: T2, α7^L131G,Q139L,Y217F-5HT3 V154I, R155Y, W156N, S172V (Homo sapiens, UniProt P36544, L131G/M226I/Q139L/R155Y/S172V/T225I/V154I/W156N/Y217F); assay: as above; settings: read-out: EC50s (SEM) for additional mutations of α7^L131G, Q139L, Y217F -5HT3
T2 construct: expressed in transfected cells; host or cells: HEK 293

[3] = target: T3, α7-5HT3 L131G, Q139L, Y217A (Homo sapiens, UniProt P36544, L131G/M226I/Q139L/T225I/Y217A); assay: EC50 dose response, α7-5HT3 mutant; settings: read-out: EC50s (SEM) for additional mutations of α7^L131G, Q139L, Y217F -5HT3
T3 construct: expressed in transfected cells; host or cells: HEK 293

[4] = target: T4, α7^L131G,Q139L,Y217F-5HT3 H163D (Homo sapiens, UniProt P36544, H163D/L131G/M226I/Q139L/T225I/Y217F); assay: EC50 dose response, PSAM4-5HT3 with additional mutations; settings: additional mutation H163D; read-out: EC50s (SEM) for additional mutations of α7^L131G, Q139L, Y217F -5HT3
T4 construct: expressed in transfected cells; host or cells: HEK 293
T4 sequence (P36544 with tags, fused parts or gaps L131G/Q139L/H163D/Y217F/T225I/M226I limits assumed): as the sequence (P36544 with tags, fused parts or gaps L131G/Q139L/S172I/Y217F/T225I/M226I limits assumed) above, with H141D, I150S counted along it

[5] = target: T5, α7^L131G,Q139L,Y217F-5HT3 V154I, R155Y, W156N, S172A (Homo sapiens, UniProt P36544, L131G/M226I/Q139L/R155Y/S172A/T225I/V154I/W156N/Y217F); assay: as above; settings: read-out: EC50s (SEM) for additional mutations of α7^L131G, Q139L, Y217F -5HT3
T5 construct: expressed in transfected cells; host or cells: HEK 293

[6] = target: T6, α7^L131G,Q139L,Y217F-5HT3 W156N, H163T (Homo sapiens, UniProt P36544, H163T/L131G/M226I/Q139L/T225I/W156N/Y217F); assay: as above; settings: read-out: EC50s (SEM) for additional mutations of α7^L131G, Q139L, Y217F -5HT3
T6 construct: expressed in transfected cells; host or cells: HEK 293

[7] = target: T7, α7^L131G,Q139L,Y217F-5HT3 V154L, R155Y, W156Q (Homo sapiens, UniProt P36544, L131G/M226I/Q139L/R155Y/T225I/V154L/W156Q/Y217F); assay: as above; settings: read-out: EC50s (SEM) for additional mutations of α7^L131G, Q139L, Y217F -5HT3
T7 construct: expressed in transfected cells; host or cells: HEK 293
T7 sequence (P36544 with tags, fused parts or gaps L131G/Q139L/V154L/R155Y/W156Q/Y217F/T225I/M226I limits assumed): as the sequence (P36544 with tags, fused parts or gaps L131G/Q139L/S172I/Y217F/T225I/M226I limits assumed) above, with V132L, R133Y, W134Q, I150S counted along it

[8] = target: T8, α7^L131G,Q139L,Y217F-5HT3 H163T, S172V (Homo sapiens, UniProt P36544, H163T/L131G/M226I/Q139L/S172V/T225I/Y217F); assay: as above; settings: read-out: EC50s (SEM) for additional mutations of α7^L131G, Q139L, Y217F -5HT3
T8 construct: expressed in transfected cells; host or cells: HEK 293

[9] = target: T9, α7^L131G,Q139L,Y217F-5HT3 H163T (Homo sapiens, UniProt P36544, H163T/L131G/M226I/Q139L/T225I/Y217F); assay: as above; settings: additional mutation H163T; read-out: EC50s (SEM) for additional mutations of α7^L131G, Q139L, Y217F -5HT3
T9 construct: expressed in transfected cells; host or cells: HEK 293

[10] = target: T10, α7^L131G,Q139L,Y217F-5HT3 H163F (Homo sapiens, UniProt P36544, H163F/L131G/M226I/Q139L/T225I/Y217F); assay: as above; settings: additional mutation H163F; read-out: EC50s (SEM) for additional mutations of α7^L131G, Q139L, Y217F -5HT3
T10 construct: expressed in transfected cells; host or cells: HEK 293

[11] = target: T11, α7^L131G,Q139L,Y217F-5HT3 H163T, S172A (Homo sapiens, UniProt P36544, H163T/L131G/M226I/Q139L/S172A/T225I/Y217F); assay: as above; settings: read-out: EC50s (SEM) for additional mutations of α7^L131G, Q139L, Y217F -5HT3
T11 construct: expressed in transfected cells; host or cells: HEK 293
T11 sequence (P36544 with tags, fused parts or gaps L131G/Q139L/H163T/S172A/Y217F/T225I/M226I limits assumed): as the sequence (P36544 with tags, fused parts or gaps L131G/Q139L/S172I/Y217F/T225I/M226I limits assumed) above, with H141T, I150A counted along it

[12] = target: T12, α7^L131G,Q139L,Y217F-5HT3 H163S (Homo sapiens, UniProt P36544, H163S/L131G/M226I/Q139L/T225I/Y217F); assay: as above; settings: additional mutation H163S; read-out: EC50s (SEM) for additional mutations of α7^L131G, Q139L, Y217F -5HT3
T12 construct: expressed in transfected cells; host or cells: HEK 293

[13] = target: T13, α7^L131G,Q139L,Y217F-5HT3 S172A (Homo sapiens, UniProt P36544, L131G/M226I/Q139L/S172A/T225I/Y217F); assay: as above; settings: additional mutation S172A; read-out: EC50s (SEM) for additional mutations of α7^L131G, Q139L, Y217F -5HT3
T13 construct: expressed in transfected cells; host or cells: HEK 293

[14] = target: T14, α7^L131G,Q139L,Y217F-5HT3 H163N (Homo sapiens, UniProt P36544, H163N/L131G/M226I/Q139L/T225I/Y217F); assay: as above; settings: additional mutation H163N; read-out: EC50s (SEM) for additional mutations of α7^L131G, Q139L, Y217F -5HT3
T14 construct: expressed in transfected cells; host or cells: HEK 293
T14 sequence (P36544 with tags, fused parts or gaps L131G/Q139L/H163N/Y217F/T225I/M226I limits assumed): as the sequence (P36544 with tags, fused parts or gaps L131G/Q139L/S172I/Y217F/T225I/M226I limits assumed) above, with H141N, I150S counted along it

[15] = target: T15, α7-5HT3 L131G, Q139L, Y217H (Homo sapiens, UniProt P36544, L131G/M226I/Q139L/T225I/Y217H); assay: EC50 dose response, α7-5HT3 mutant; settings: read-out: EC50s (SEM) for additional mutations of α7^L131G, Q139L, Y217F -5HT3
T15 construct: expressed in transfected cells; host or cells: HEK 293

[16] = target: T16, α7^L131G,Q139L,Y217F-5HT3 H163K (Homo sapiens, UniProt P36544, H163K/L131G/M226I/Q139L/T225I/Y217F); assay: EC50 dose response, PSAM4-5HT3 with additional mutations; settings: additional mutation H163K; read-out: EC50s (SEM) for additional mutations of α7^L131G, Q139L, Y217F -5HT3
T16 construct: expressed in transfected cells; host or cells: HEK 293
T16 sequence (P36544 with tags, fused parts or gaps L131G/Q139L/H163K/Y217F/T225I/M226I limits assumed): as the sequence (P36544 with tags, fused parts or gaps L131G/Q139L/S172I/Y217F/T225I/M226I limits assumed) above, with H141K, I150S counted along it

[17] = target: T17, α7^L131G,Q139L,Y217F-5HT3 H163R (Homo sapiens, UniProt P36544, H163R/L131G/M226I/Q139L/T225I/Y217F); assay: as above; settings: additional mutation H163R; read-out: EC50s (SEM) for additional mutations of α7^L131G, Q139L, Y217F -5HT3
T17 construct: expressed in transfected cells; host or cells: HEK 293

[18] = target: T18, α7-5HT3 L131G, Q139L, W171F (Homo sapiens, UniProt P36544, L131G/M226I/Q139L/T225I/W171F); assay: EC50 dose response, α7-5HT3 mutant; settings: read-out: EC50s (SEM) for additional mutations of α7^L131G, Q139L, Y217F -5HT3
T18 construct: expressed in transfected cells; host or cells: HEK 293

[19] = target: T19, α7-5HT3 L131G, Q139L, Y217V (Homo sapiens, UniProt P36544, L131G/M226I/Q139L/T225I/Y217V); assay: EC50 dose response, α7-5HT3 mutant; settings: read-out: EC50s (SEM) for additional mutations of α7^L131G, Q139L, Y217F -5HT3
T19 construct: 5HT3 ion pore domain (fusion partner); expressed in transfected cells; HEK 293 is named only for the electrophysiology
T19 sequence (P36544 with tags, fused parts or gaps L131G/Q139L/Y217V/T225I/M226I limits assumed): as the sequence (P36544 with tags, fused parts or gaps L131G/Q139L/S172I/Y217F/T225I/M226I limits assumed) above, with I150S, F195V counted along it

[20] = target: T20, PSAM4-5HT3 (α7-5HT3^L131G,Q139L,Y217F) (Homo sapiens, UniProt P36544, L131G/M226I/Q139L/T225I/Y217F); assay: EC50 dose response of LGIC ligands on PSAM4-5HT3; settings: read-out: EC50s (SEM) for additional mutations of α7^L131G, Q139L, Y217F -5HT3
T20 construct: expressed in transfected cells; host or cells: HEK 293
T20 sequence (P36544 with tags, fused parts or gaps L131G/Q139L/Y217F/T225I/M226I limits assumed): as the sequence (P36544 with tags, fused parts or gaps L131G/Q139L/S172I/Y217F/T225I/M226I limits assumed) above, with I150S counted along it

[21] = target: T21, α7^L131G,Q139L,Y217F-5HT3 H163V (Homo sapiens, UniProt P36544, H163V/L131G/M226I/Q139L/T225I/Y217F); assay: EC50 dose response, PSAM4-5HT3 with additional mutations; settings: additional mutation H163V; read-out: EC50s (SEM) for additional mutations of α7^L131G, Q139L, Y217F -5HT3
T21 construct: expressed in transfected cells; host or cells: HEK 293
T21 sequence (P36544 with tags, fused parts or gaps L131G/Q139L/H163V/Y217F/T225I/M226I limits assumed): as the sequence (P36544 with tags, fused parts or gaps L131G/Q139L/S172I/Y217F/T225I/M226I limits assumed) above, with H141V, I150S counted along it

[22] = target: T22, α7^L131G,Q139L,Y217F-5HT3 W156N (Homo sapiens, UniProt P36544, L131G/M226I/Q139L/T225I/W156N/Y217F); assay: cell-based
T22 construct: expressed in transfected cells; host or cells: HEK 293

[23] = target: T23, α7^L131G,Q139L,Y217F-5HT3 V154I, R155Y, W156N (Homo sapiens, UniProt P36544, L131G/M226I/Q139L/R155Y/T225I/V154I/W156N/Y217F); assay: EC50 dose response, PSAM4-5HT3 with additional mutations; settings: read-out: EC50s (SEM) for additional mutations of α7^L131G, Q139L, Y217F -5HT3
T23 construct: expressed in transfected cells; host or cells: HEK 293
T23 sequence (P36544 with tags, fused parts or gaps L131G/Q139L/V154I/R155Y/W156N/Y217F/T225I/M226I limits assumed): as the sequence (P36544 with tags, fused parts or gaps L131G/Q139L/S172I/Y217F/T225I/M226I limits assumed) above, with V132I, R133Y, W134N, I150S counted along it

[24] = target: T24, α7^L131G,Q139L,Y217F-5HT3 S172V (Homo sapiens, UniProt P36544, L131G/M226I/Q139L/S172V/T225I/Y217F); assay: as above; settings: additional mutation S172V; read-out: EC50s (SEM) for additional mutations of α7^L131G, Q139L, Y217F -5HT3
T24 construct: expressed in transfected cells; host or cells: HEK 293

[25] = target: T25, α7^L131G,Q139L,Y217F-5HT3 H163A (Homo sapiens, UniProt P36544, H163A/L131G/M226I/Q139L/T225I/Y217F); assay: as above; settings: additional mutation H163A; read-out: EC50s (SEM) for additional mutations of α7^L131G, Q139L, Y217F -5HT3
T25 construct: expressed in transfected cells; host or cells: HEK 293
T25 sequence (P36544 with tags, fused parts or gaps L131G/Q139L/H163A/Y217F/T225I/M226I limits assumed): as the sequence (P36544 with tags, fused parts or gaps L131G/Q139L/S172I/Y217F/T225I/M226I limits assumed) above, with H141A, I150S counted along it

## C[N+](C)(C)CCO [Choline, choline, reference compound]
[1]
  EC50: 1110 µM
[2]
  EC50: 910 µM
[3]
  EC50: 832 µM
[4]
  EC50: 361 µM
[5]
  EC50: 680 µM
[6]
  EC50: 646 µM
[7]
  EC50: 94 µM
[8]
  EC50: 1330 µM
[9]
  EC50: 330 µM
[10]
  EC50: 230 µM
[11]
  EC50: 1020 µM
[12]
  EC50: 245 µM
[13]
  EC50: 349 µM
[14]
  EC50: 107 µM
[15]
  EC50: 2060 µM
[16]
  EC50: 168 µM
[17]
  EC50: 153 µM
[18]
  EC50: 177 µM
[19]
  EC50: 1160 µM
[20]; PSAM4-5HT3 (no additional mutation)
  EC50: 143 µM
[20]; line L131G, Q139L, Y217F (same values as PSAM4-5HT3 line)
  EC50: 143 µM
[21]
  EC50: 508 µM
[22]
  EC50: 172 µM
[23]
  EC50: 330 µM
[24]
  EC50: 895 µM
[25]
  EC50: 219 µM
